Data taken from PMC8270344, “Enantioenriched Positive Allosteric Modulators Display Distinct Pharmacology at the Dopamine D1 Receptor” (Molecules, 2021).

Target: T1, dopamine D1 receptor (hD1R) (Homo sapiens, UniProt P21728)
T1 construct: gene DRD1; hD1R stably expressed in FlpIn CHO cells
Test: cAMP BRET (CAMYEL) assay with dopamine curves, operational model of allostery (functional KB)
Assay type: cell-based
Conditions: read-out: pKB (KB, μM) ^1 (converted)

T1 sequence (P21728 whole entry): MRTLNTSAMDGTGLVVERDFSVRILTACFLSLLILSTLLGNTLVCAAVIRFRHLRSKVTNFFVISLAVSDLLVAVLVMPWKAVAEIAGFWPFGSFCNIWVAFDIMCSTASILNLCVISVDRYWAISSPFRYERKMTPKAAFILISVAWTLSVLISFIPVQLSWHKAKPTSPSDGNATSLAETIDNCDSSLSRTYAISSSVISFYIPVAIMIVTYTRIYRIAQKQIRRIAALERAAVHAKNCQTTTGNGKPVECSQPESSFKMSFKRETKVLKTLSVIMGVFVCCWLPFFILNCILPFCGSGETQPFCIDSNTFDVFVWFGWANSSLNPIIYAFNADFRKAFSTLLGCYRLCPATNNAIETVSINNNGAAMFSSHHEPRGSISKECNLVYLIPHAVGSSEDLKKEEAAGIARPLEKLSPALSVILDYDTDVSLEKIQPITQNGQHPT

Kb | SMILES
7.6 µM | Cc1ccc(Cl)c(NC(=O)[C@]2(C)C[C@H]3c4ccccc4[C@@H]2c2ccccc23)c1Cl [(R)-2, (9R,10S,12S)-N-(2,6-Dichloro-3-methylphenyl)-12-methyl-9,10-dihydro-9,10-ethanoanthracene-12-carboxamide]
1.6 µM | Cc1ccc(Cl)c(NC(=O)C2(C)CC3c4ccccc4C2c2ccccc23)c1Cl (racemic) [rac-2, rel-(9R,10R,12S)-N-(2,6-Dichloro-3-methylphenyl)-12-methyl-9,10-dihydro-9,10-ethanoanthracene-12-carboxamide]
1 µM | Cc1ccc(Cl)c(NC(=O)[C@@]2(C)C[C@H]3c4ccccc4[C@@H]2c2ccccc23)c1Cl [(S)-2, (9S,10R,12R)-N-(2,6-Dichloro-3-methylphenyl)-12-methyl-9,10-dihydro-9,10-ethanoanthracene-12-carboxamide]
